Data from US10125134B2 (Mirati Therapeutics, Inc., priority 2016, dated 2018).
Like-named read-outs stand apart in the source and are kept apart here.

Legend:
[1] = target: KRas G12C (Homo sapiens, UniProt P01116, C118S/C51S/C80L/G12C); assay: KRas G12C Modification Assay (LCMS detection of covalent adduct); format: binding
In short: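 Covalent modification was read by reverse-phase LC/MS of intact protein after compound exposure, each reaction stopped at its time point with 25 mM acetic acid. Unmodified-protein signal, taken as percent of total, was normalised to untreated protein and reported as POC.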

[2] = test system: NCI-H358 cells (express KRas G12C), Phospho-ERK; assay: Cellular inhibition of KRas G12C: Phospho-ERK in NCI-H358 cells; format: cell-based; conditions: Homo sapiens
In short: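 IC50 derived by 4-parameter fit of GAPDH-normalized pERK(Thr202/Tyr204) signal, as percent of DMSO control. Signal came from in-cell immunodetection with infrared secondaries after 3 h compound exposure of KRas G12C NCI-H358 cells at 0.5% DMSO.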

[3] = normalized percent of control, tested at 5 μM concentration for 3 hours
[4] = NCI-H358, 3 h, pERK(Thr202/Tyr204) normalized with GAPDH, NCI-H358 cells, 3 hours, read-out: IC50
[5] = pERK(Thr202/Tyr204) normalized with GAPDH, NCI-H358 cells, 3 hours, read-out: IC50

Row | SMILES | POC [1, 3] | IC50 [2, 4] [nM] | IC50 [2, 5] [nM] | POC ([1]; 5 µM) | IC50 ([2]; NCI-H358, 3 h) [nM]
1 | C=CC(=O)N1CCN(c2nc(OCCCO)nc3c2CCN(c2cccc4ccccc24)C3)CC1CC#N (stereo not drawn) [Example 231, 2-(1-acryloyl-4-(2-(3-hydroxypropoxy)-7-(naphthalen-1-yl)-5,6,7,8-tetrahydropyrido[3,4-d]pyrimidin-4-yl)piperazin-2-yl)acetonitrile] | C (“C”>50% POC) |  | 0.1 to 1000 |  | 
2 | C=CC(=O)N1CCN(c2nc(OCCCN3CCOCC3)nc3c2CCN(c2cc(O)cc(Cl)c2F)C3)CC1 [Example 232, 1-(4-(7-(3-chloro-2-fluoro-5-hydroxyphenyl)-2-(3-morpholinopropoxy)-5,6,7,8-tetrahydropyrido[3,4-d]pyrimidin-4-yl)piperazin-1-yl)prop-2-en-1-one] | C (“C”>50% POC) |  | > 1000 |  | 
3 | C=CC(=O)N1CCN(c2nc(OC[C@@H]3CCCN3CC)nc3c2CCN(c2cccc4ccccc24)C3)CC1CC#N (stereo partly drawn) [Example 233, 2-(1-acryloyl-4-(2-(((S)-1-ethylpyrrolidin-2-yl)methoxy)-7-(naphthalen-1-yl)-5,6,7,8-tetrahydropyrido[3,4-d]pyrimidin-4-yl)piperazin-2-yl)acetonitrile] | C (“C”>50% POC) | 0.1 to 1000 |  |  | 
4 | C=CC(=O)N1CCN(c2nc(OC[C@@H]3CCCN3C)nc3c2CCN(c2cccc4ccccc24)C3)C[C@@H]1CC#N [Example 234, 2-((S)-1-acryloyl-4-(2-(((S)-1-methylpyrrolidin-2-yl)methoxy)-7-(naphthalen-1-yl)-5,6,7,8-tetrahydropyrido[3,4-d]pyrimidin-4-yl)piperazin-2-yl)acetonitrile] | C (“C”>50% POC) |  | 0.1 to 1000 |  | 
5 | CN(C)C/C=C/C(=O)N1CCN(c2nc(OC[C@@H]3CCCN3C)nc3c2CCN(c2cccc4ccccc24)C3)C[C@@H]1CC#N [Example 235, 2-((S)-1-((E)-4-(dimethylamino)but-2-enoyl)-4-(2-(((S)-1-methylpyrrolidin-2-yl)methoxy)-7-(naphthalen-1-yl)-5,6,7,8-tetrahydropyrido[3,4-d]pyrimidin-4-yl)piperazin-2-yl)acetonitrile] | C (“C”>50% POC) | 0.1 to 1000 |  |  | 
6 | CN1CCC[C@H]1COc1nc2c(c(N3CCN(C(=O)/C=C/CN4CCCCC4)[C@@H](CC#N)C3)n1)CCN(c1cccc3ccccc13)C2 [Example 236, 2-((S)-4-(2-(((S)-1-methylpyrrolidin-2-yl)methoxy)-7-(naphthalen-1-yl)-5,6,7,8-tetrahydropyrido[3,4-d]pyrimidin-4-yl)-1-(E-4-(piperidin-1-yl)but-2-enoyl)piperazin-2-yl)acetonitrile] | C (“C”>50% POC) | 0.1 to 1000 |  |  | 
7 | C=CC(=O)N1CCN(c2nc(OC[C@@H]3CCCN3C)nc3c2CCN(c2c(C)ccc4cn[nH]c24)C3)CC1CC#N (stereo partly drawn) [Example 238, 2-(1-acryloyl-4-(7-(6-methyl-1H-indazol-7-yl)-2-(((S)-1-methylpyrrolidin-2-yl)methoxy)-5,6,7,8-tetrahydropyrido[3,4-d]pyrimidin-4-yl)piperazin-2-yl)acetonitrile] | C (“C”>50% POC) | 0.1 to 1000 |  |  | 
8 | C=CC(=O)N1CCN(c2nc(OC[C@@H]3CCCN3C)nc3c2CCN(c2cccc4ccc(C)cc24)C3)CC1CC#N (stereo partly drawn) [Example 245, 2-[4-[7-(7-methyl-1-naphthyl)-2-[[(2S)-1-methylpyrrolidin-2-yl]methoxy]-6,8-dihydro-5H-pyrido[3,4-d]pyrimidin-4-yl]-1-prop-2-enoyl-piperazin-2-yl]acetonitrile] | C (“C”>50% POC) |  | 0.1 to 1000 |  | 
9 | C=CC(=O)N1CCN(c2nc(OC[C@@H]3CCCN3C)nc3c2CCN(c2ccc(F)c4ccccc24)C3)CC1CC#N (stereo partly drawn) [Example 246, 2-[4-[7-(4-fluoro-1-naphthyl)-2-[[(2S)-1-methylpyrrolidin-2-yl]methoxy]-6,8-dihydro-5H-pyrido[3,4-d]pyrimidin-4-yl]-1-prop-2-enoyl-piperazin-2-yl]acetonitrile] | C (“C”>50% POC) | 0.1 to 1000 |  |  | 
10 | C=CC(=O)N1CCN(c2nc(OC[C@@H]3CCCN3C)nc3c2CCN(c2c(C(C)C)ccc4[nH]ncc24)C3)CC1 [Example 248, (S)-1-(4-(7-(5-isopropyl-1H-indazol-4-yl)-2-((1-methylpyrrolidin-2-yl)methoxy)-5,6,7,8-tetrahydropyrido[3,4-d]pyrimidin-4-yl)piperazin-1-yl)prop-2-en-1-one] |  |  |  | C (key: “A”≤25% POC; “B”>25% POC−≤50% POC; “C”>50% POC) | > 1000
11 | C=CC(=O)N1CCN(c2nc(OC[C@@H]3CCCN3C)nc3c2CCN(c2c(F)c(O)cc4ccccc24)C3)CC1 [Example 249, 1-[4-[7-(2-fluoro-3-hydroxy-1-naphthyl)-2-[[(2S)-1-methylpyrrolidin-2-yl]methoxy]-6,8-dihydro-5H-pyrido[3,4-d]pyrimidin-4-yl]piperazin-1-yl]prop-2-en-1-one] | C (“C”>50% POC) |  | 0.1 to 1000 |  | 
12 | C=CC(=O)N1CCN(c2nc(OC[C@@H]3CCCN3C)nc3c2CCN(c2c(Cl)ccc4[nH]ncc24)C3)CC1 [Example 250, 1-[4-[7-(5-chloro-1H-indazol-4-yl)-2-[[(2S)-1-methylpyrrolidin-2-yl]methoxy]-6,8-dihydro-5H-pyrido[3,4-d]pyrimidin-4-yl]piperazin-1-yl]prop-2-en-1-one] | C (“C”>50% POC) | > 1000 |  |  | 
13 | C=CC(=O)N1CCN(c2nc(OC[C@@H]3CCCN3C(C)C)nc3c2CCN(c2cccc4ccccc24)C3)CC1CC#N (stereo partly drawn) [Example 252, 2-[4-[2-[[(2S)-1-isopropylpyrrolidin-2-yl]methoxy]-7-(1-naphthyl)-6,8-dihydro-5H-pyrido[3,4-d]pyrimidin-4-yl]-1-prop-2-enoyl-piperazin-2-yl]acetonitrile] | C (“C”>50% POC) |  | 0.1 to 1000 |  | 
14 | C=CC(=O)N1CCN(c2nc(OC[C@@H]3CCCN3C)nc3c2CCN(c2cccc4ccc(Cl)cc24)C3)CC1CC#N (stereo partly drawn) [Example 253, 2-(1-acryloyl-4-(7-(7-chloronaphthalen-1-yl)-2-(((S)-1-methylpyrrolidin-2-yl)methoxy)-5,6,7,8-tetrahydropyrido[3,4-d]pyrimidin-4-yl)piperazin-2-yl)acetonitrile] | C (“C”>50% POC) | 0.1 to 1000 |  |  | 

Continued, in another order:

Row | POC [1, 3] | SMILES | IC50 [2, 4] [nM] | IC50 [2, 5] [nM] | POC ([1]; 5 µM) | IC50 ([2]; NCI-H358, 3 h) [nM]
15 | C (“C”>50% POC) | C=CC(=O)N1CCN(c2nc(OC[C@@H]3CCCN3C)nc3c2CCN(c2cccc(F)c2C(F)(F)F)C3)CC1CC#N (stereo partly drawn) [Example 230, 2-(1-acryloyl-4-(7-(3-fluoro-2-(trifluoromethyl)phenyl)-2-(((S)-1-methylpyrrolidin-2-yl)methoxy)-5,6,7,8-tetrahydropyrido[3,4-d]pyrimidin-4-yl)piperazin-2-yl)acetonitrile] | 0.1 to 1000 |  |  | 
16 | C (“C”>50% POC) | C=CC(=O)N1CCN(c2nc(OC[C@@H]3CCCN3C)nc3c2CCN(c2ccccc2C(F)(F)F)C3)C[C@@H]1CC#N [Example 237, 2-((S)-1-acryloyl-4-(2-(((S)-1-methylpyrrolidin-2-yl)methoxy)-7-(2-(trifluoromethyl)phenyl)-5,6,7,8-tetrahydropyrido[3,4-d]pyrimidin-4-yl)piperazin-2-yl)acetonitrile 2,2,2-trifluoroacetate] | 0.1 to 1000 |  |  | 
17 | C (“C”>50% POC) | C=CC(=O)N1CCN(c2nc(OC[C@@H]3CCCN3C)nc3c2CCN(c2ccncc2C(F)(F)F)C3)CC1CC#N (stereo partly drawn) [Example 239, 2-(1-acryloyl-4-(2-(((S)-1-methylpyrrolidin-2-yl)methoxy)-7-(3-(trifluoromethyl)pyridin-4-yl)-5,6,7,8-tetrahydropyrido[3,4-d]pyrimidin-4-yl)piperazin-2-yl)acetonitrile] | > 1000 |  |  | 
18 | C (“C”>50% POC) | C=CC(=O)N1CCN(c2nc(OC[C@@H]3CCCN3C)nc3c2CCN(c2ccccc2CC(F)(F)F)C3)CC1CC#N (stereo partly drawn) [Example 240, 2-(1-acryloyl-4-(2-(((S)-1-methylpyrrolidin-2-yl)methoxy)-7-(2-(2,2,2-trifluoroethyl)phenyl)-5,6,7,8-tetrahydropyrido[3,4-d]pyrimidin-4-yl)piperazin-2-yl)acetonitrile] | > 1000 |  |  | 
19 | C (“C”>50% POC) | CN1CCC[C@H]1COc1nc2c(c(N3CCN(C(=O)OCc4ccccc4)C(CC#N)C3)n1)CCN(c1ncccc1C(F)(F)F)C2 (stereo partly drawn) [Example 241, benzyl 2-(cyanomethyl)-4-(2-(((S)-1-methylpyrrolidin-2-yl)methoxy)-7-(3-(trifluoromethyl)pyridin-2-yl)-5,6,7,8-tetrahydropyrido[3,4-d]pyrimidin-4-yl)piperazine-1-carboxylate] | > 1000 |  |  | 
20 | C (“C”>50% POC) | C=CC(=O)N1CCN(c2nc(OC[C@H]3CCCN3C)nc3c2CCN(c2c(C(F)(F)F)ccc4[nH]ncc24)C3)CC1CC#N (stereo partly drawn) [Example 243, 2-[4-[2-[[(2R)-1-methylpyrrolidin-2-yl]methoxy]-7-[5-(trifluoromethyl)-1H-indazol-4-yl]-6,8-dihydro-5H-pyrido[3,4-d]pyrimidin-4-yl]-1-prop-2-enoyl-piperazin-2-yl]acetonitrile] | 0.1 to 1000 |  |  | 
21 | C (“C”>50% POC) | C=CC(=O)N1CCN(c2nc(OC[C@@H]3CCCN3C)nc3c2CCN(c2cccc4cccnc24)C3)CC1CC#N (stereo partly drawn) [Example 247, 2-(1-acryloyl-4-(2-(((S)-1-methylpyrrolidin-2-yl)methoxy)-7-(quinolin-8-yl)-5,6,7,8-tetrahydropyrido[3,4-d]pyrimidin-4-yl)piperazin-2-yl)acetonitrile] | > 1000 |  |  | 
